Patent US12594282B2, “Use of small molecule compounds in the treatment of diseases mediated by lung epithelial cell injury and/or vascular endothelial cell injury” (Guangzhou Cellprotek Pharmaceutical Co., Ltd., priority 2020, dated 2026)

Tests used:
[1] = test system: NR4A3; assay: NR4A3 protein expression under OGD-R, RAOEC (Western blot, immunofluorescence); assay type: cell-based, rat; conditions: OGD 4 hours, restoration 24 hours, 1, 3, 10 μM given at restoration
Description: (§1) HUVEC cells were cultured in modified DMEM medium containing 10% fetal bovine serum. When the cells reached about 80% confluence, the cells were digested with 0.25% trypsin, and then pipetted evenly with modified DMEM containing 10% […]. The cell concentration was adjusted to 1×10^5 cells/mL, and the cells were seeded at 400 uL/well in a 24-well plate, and the experiment was carried out when the cells grew to about 70% confluence. RAOEC cells were cultured in high-glucose DMEM medium containing 10% fetal bovine serum, and the seeding conditions were the same as those of HUVEC. During the OGD-R injury treatment, the hypoxia workstation was set to have an oxygen concentration of 1% (1% O2, 5% CO2, 94% N2), a temperature of 37° C., and a humidity of 85%. A sugar-free DMEM medium was placed in the hypoxia workstation for pre-hypoxia for 3 hours. The medium in the culture plate was aspirated, and the plate was washed twice with preheated sugar-free DMEM medium, and 100 uL of sugar-free DMEM medium was added to each well. The culture plate was placed in the hypoxia workstation, and 300 uL of pre-hypoxic sugar-free DMEM medium was added to each well, and then the culture plate was placed in the hypoxia workstation for additional hypoxia for 4 hours. Restoration was then performed. The culture plate was taken out, and the sugar-free DMEM medium was replaced with 400 uL of normal medium containing 10% fetal bovine serum, and then the plate was placed in a 37° C. 5% CO2 cell incubator for culturing for 24 hours or a specified time period. For the cells in the normal group, it was only replaced with 400 uL of new normal medium containing 10% fetal bovine serum. […]
The cells were washed twice with pre-cooled PBS, then scraped off with a cell scraper and transferred to a 1.5 mL centrifuge tube, and centrifugation was performed at 4° C. and 1000 g for 5 minutes. […] Each protein sample was then quantified using the BCA protein quantification kit. After protein quantification, protein lysis buffer was used to adjust the protein concentration of each sample to be consistent with the protein sample with the lowest concentration, and then each protein sample was sufficiently mixed with 5× protein loading buffer at a ratio of 4:1. […]

[2] = test system: HPAEpiC cells; assay: LPS+hypoxia model, LDH release, alveolar epithelial cells; assay type: cell-based, human
Description: HPAEpiC cells were cultured with alveolar epithelial cell medium. When the cells grew to about 80% confluence, the cells were digested with 0.25% trypsin, and then pipetted evenly with alveolar epithelial cell medium. The cell concentration was adjusted to 2×10^5 cells/mL, and the cells were seeded in a 24-well plate at 400 uL/well. The experiment was conducted when the cells grew to about 70% confluence.
The hypoxia workstation was set to have an oxygen concentration of 1% (1% O2, 5% CO2, 94% a temperature to 37° C., and a humidity of 85%. After the conditions in the hypoxia workstation were stable, 1 mg/mL LPS was directly added to the cells to make the final concentration of LPS […], and then the cells were cultured in the hypoxia workstation for 24 hours.
Before being subjected to the model, the cells in the drug group were pre-incubated with vehicle (20% hydroxypropyl cyclodextrin solution) or drug (the final concentration of YC-6 was 1 μM, 5 μM, 10 μM) for 1 hour, and then added with LPS, and placed in the hypoxia workstation for constructing the model, until the end of the experiment. The model control group was not treated with any drug, and the normal group was placed in a cell incubator for routine culturing. 10 μM dexamethasone was used as the drug control. Three replicates were performed for each treatment group.

[3] = test system: NR4A3 mRNA; assay: NR4A3 mRNA under OGD-R, RAOEC (real-time fluorescent quantitative PCR); assay type: cell-based, rat; conditions: 10 μM given at restoration
Description: as §1, with “performed.” for “performed. The culture plate was taken out, and the sugar-free DMEM medium was replaced with 400 uL of normal medium containing 10% fetal bovine serum, and then the plate was placed in a 37° C. 5% CO2 cell incubator for culturing for 24 hours or a specified time period. For the cells in the normal group, it was only replaced with 400 uL of new normal medium containing 10% fetal bovine serum.”

C[C@@]12CCCC1C1C[C@@H](O)[C@]3(O)C[C@@H](O)CC[C@]3(C)C1CC2 (stereo partly drawn) [YC-6, 5α-androst-3β,5,6β-triol]
NR4A3 protein expression [1]: dose-dependently increase the protein expression of NR4A3 | protective effect compared with 10 μM dexamethasone (LDH release) ([2]; 10 μM, LPS and 1% O2 for 24 hours): significantly better protective effect than dexamethasone | damage to alveolar epithelial cells (LDH release) induced by hypoxia and LPS ([2]; 1, 5, 10 μM, 1 hour pre-incubation, 20 μg/mL LPS and 1% O2 for 24 hours): dose-dependently reduce damage to alveolar epithelial cells | transcription level of NR4A3 (relative mRNA expression) [3]: did not significantly up-regulate the transcription level of NR4A3
